According to article PMC12313019, “Fibrotic lung ECM upregulates SDC4/integrin-αvβ1 interaction and the interfering peptide SDC4_87-131 and its derivative peptides alleviate pulmonary fibrosis” (Regenerative Biomaterials, 2025):
“Also recorded” adds a separate entry of the source.

How the values were obtained:
pan-integrins = test: FN-coating cell adhesion assay (pan-integrins activation); assay type: cell-based, mouse; details: 100 nM, n=5
Description: 10 μg/mL Fibronectin (Merck, #10838039001) was dissolved in serum-free DMEM medium and dropped into a 96-well plate, 50 μL per well. The plate was incubated at 4 °C overnight. After blocking with 3% bovine serum albumin at room temperature for 30 min, 4×10^4 cells were inoculated into each well. After incubation for 30 min, the cells were washed, fixed, and stained with crystal violet (5 mg/mL) for 30 min. Then after the crystal violet was dissolved, it was detected using an ELISA reader at 595 nm.

SDC4/integrin-β1 = test: Duolink-PLA, SDC4/integrin-β1 extracellular interaction in fibroblast; assay type: cell-based, mouse; details: SDC4_87-131 100 nM; with Anti-SDC4(93-121), n=5
Description: Decellularized lung ECM (dECM) was prepared as described in previous study. 2 × 10^5 cells/mL NIH3T3 cells (mouse […], purchased from the Stem Cell Bank of the Chinese Academy of Sciences, Shanghai, China) were seeded on the dECM slices attached to the bottom of the culture dish and cultured in DMEM medium containing 0.5% fetal bovine serum (Gibco, Waltham, MA, USA) at 37°C and 5% CO2.
(§1) Cells or tissue slices were attached to slides, fixed and permeabilized and blocked with Duolink^TM (Merck, MO, USA) blocking buffer. Antibodies against the extracellular domain of SDC4 (5G9, mouse IgG, SCBT #sc-12766), integrin-αv (rabbit IgG, CST #4711) and integrin-β1 (rabbit IgG, CST #34971) were diluted and added to the samples and incubated overnight at 4°C. After washing, PLUS and MINUS (proximity ligation assay, PLA) probes were added to the samples and incubated at 37°C for 1 h. After washing, the samples were sequentially incubated with PLUS and MINUS (PLA) probes, ligation buffer and amplification buffer containing polymerase. Finally, the samples were mounted with in situ mounting medium containing DAPI. Images were acquired using a Leica SP5 confocal microscope (Leica Biosystems, Germany) and quantitative analysis was performed using ImageJ software.

SDC4/integrin-αv = test: Duolink-PLA, SDC4/integrin-αv interaction in BLM lung tissue; assay type: in vivo, mouse; details: SDC4_87-131 1 mg/kg ITD q3d; C8 10 mg/kg IP qd; Anti-SDC4(93-121) 8 mg/kg ITD day 3 and 10; n=5
Description: (§2) After the mice were anesthetized (1% sodium pentobarbital 50 mg/kg was injected intraperitoneally), 150 μL of bleomycin (BLM, 5 mg/mL, BIO-000001) was inhaled into the lungs of the mice by tracheal inhalation instillation. One day later, the mice were randomly divided into model and drug treatment groups, and the mice in the control group were only subjected to saline inhalation.
as §1

[1] = system: BLM-induced PF, C57BL/6J mice; test: BLM-induced PF in mice: HE, Masson, hydroxyproline; assay type: in vivo, mouse
Description: C57BL/6J mice (male, 8-to 9-week old, 18–22 g, SPF grade) were purchased from Shanghai Slake Laboratory Animal Co., Ltd. [SCXK (Hu) 2022-0004, Shanghai, China]. […] The mice were housed in an SPF environment with 22–25°C, 46–65% humidity and 12 h/12 h light-dark alternation, with free access to water and food. This animal experiment was approved by the Experimental Animal Welfare Ethics Committee of Fujian Medical University (No. FJMU IACUC 2021-0465), and was carried out in accordance with the National Research Council's Guide for the Care and Use of Laboratory Animals.
as §2
(§3) Based on the dosage of SDC2 fragment peptide and our experimental results (Supplementary Figure S10A and B), the dosage schedule of SDC4_87-131 was set as follows: starting on the third day after BLM inhalation, 1 mg/kg, administered via trachea infusion once every three days. And Anti-SDC4(93-121) 8 mg/kg was administered on the third and tenth days (reference dosage).
Lung tissue samples were paraffin-embedded, then sliced and dewaxed, and HE and Masson staining were performed respectively. After dehydration and sealing, images were collected and analyzed using a microscope.
100 mg of lung tissue was accurately weighed and processed according to the instructions of the hydroxyproline assay kit (Nanjing Jiancheng, Nanjing, China), and the absorbance was measured at a wavelength of 550 nm. The data were expressed as micrograms (µg) of hydroxyproline per mg of dry lung tissue.

[2] = system: BLM-induced PF, C57BL/6J mice; test: BLM-induced PF in mice: lung index and blood cell count; assay type: in vivo, mouse; details: n=6
Description: as §2, §3
At the termination of the experiment, the mice were euthanized and their lung tissues were taken after the eyeballs were removed and blood was collected. Within 2 hours after blood collection, the blood samples were tested on the URIT-2900VetPLUS automatic animal blood cell analyzer.

integrin-β1 = test: BLM-induced PF in mice: flow cytometry of integrin-β1 activation in lung tissue; assay type: in vivo, mouse
Description: as §2
The single cell suspension of mouse lung tissue was obtained by grinding. After the remaining red blood cells were lysed with ACK Lysis Buffer (TBD, NH4CL2009), 1×10^6 cells/100 μL of cells were added with Fixable Viability Stain 780 (BD, #565388). After incubation at room temperature in the dark for 10-15 min, the suspension was washed twice with PBS containing 1%-2% FBS. The FCR antibody TruStain FcX™ PLUS (BD, #156603) was added to the cell suspension at a ratio of 0.25 μL:100 μL and blocked on ice for 10 min. Then, the antibody was incubated at an appropriate concentration and time according to the manufacturer's instructions. Antibodies include CD45 (Biolegend, #157619), CD140a (Thermo Fisher, #25-1401-82), SDC-4 (Sino Biological, #50726-R112-P), SP-C (Bioss, #bs-10067R-FITC) and Integrin-β1 (9Eg7, BD, 553715), and AF647 anti-Rat (CST, #4418S) was used as the secondary antibody. After incubation, cells were washed and resuspended, and detected using LSRFortessaX-20 (BD).

BLM lung injury, mice = test: BLM lung injury, subacute stage, HE staining; assay type: in vivo, mouse; details: 300 μg/kg, i.h., qd from 24 h after BLM, to day 15
Description: as §2
(A) Flow chart of animal experiments. SDC487-131 (300 μg/kg, i.h., qd) was administered starting 24 h after BLM modeling, and the experiment ended on the 15th day; (B) The pathological changes at the subacute stage of BLM lung injury were observed by HE staining (scale bar = 1000 μm, 50μm). […] To achieve better results, we used intratracheal instillation of SDC487-131 (1mg/kg, q3d).

“Ac-NHIPERAGSGSQVPTEPKKLEENEVIPKRISPVEESEDVSNKVSM-NH2 [SDC4_87-131]” was tested. Which pan-integrins activation (pan-integrins) did it give?
The pan-integrins activation was “could inhibit pan-integrins activation”.

What about the “integrin-β1/SDC4 interaction induced by dECM-PF” value (SDC4/integrin-β1) of the same substance?
The value was “significantly reduce”.

And the “interaction of integrin-αv and SDC4 in BLM lung tissue” value (SDC4/integrin-αv)?
Its value is “could reduce the interaction of integrin-αv and SDC4”.

And the “alveolar structural disorders and collagen deposition” value ([1]; SDC4_87-131 1 mg/kg ITD q3d, C8 10 mg/kg IP qd, Anti-SDC4(93-121) 8 mg/kg ITD day 3 and 10, to day 21)?
The value was “could alleviate alveolar structural disorders and collagen deposition”.

And the “difference between treatments (HE, Masson, hydroxyproline)” value ([1]; SDC4_87-131, Anti-SDC4(93-121) and C8 compared)?
The value was “no significant difference”.

What about the “downregulating effect (blood leukocyte count) vs C8” value ([2]; Figure 5F) of the same substance?
Its value is “notably stronger than that of C8”.

What about the “lung index and blood leukocyte count” value ([2]; SDC4_87-131, C8, Anti-SDC4(93-121) groups) of the same substance?
The value was “could reduce the lung index and blood leukocyte count”.

And the “integrin-β1 activation in nonimmune cells (CD45^-)” value (integrin-β1)?
Its value is “abolished”.

And the “integrin-β1 activation effect vs C8 and Anti-SDC4(93-121)” value (integrin-β1; CD45^- cells)?
Its value is “equivalent to the effects of C8 and Anti-SDC4(93-121)”.

What about the “BLM lung injury, subacute stage” value (BLM lung injury, mice) of the same substance?
The value was “can alleviate BLM lung injury in the subacute stage; also recorded: effective”.
